Data taken from BigSolDB 2.1.

CCn1c2ccccc2c2cc(-n3nncc3-c3ccccc3)ccc21
solubility (mole fraction)
Conditions | 278.15 K | 283.15 K | 288.15 K | 293.15 K | 298.15 K | 303.15 K | 308.15 K | 313.15 K | 318.15 K | 323.15 K
in acetonitrile | 0.00173 | 0.0022 | 0.00272 | 0.00336 | 0.00412 | 0.00505 | 0.00609 | 0.00733 | 0.00897 | 0.011
in ethanol | 0.000446 | 0.000546 | 0.000674 | 0.00084 | 0.00102 | 0.00124 | 0.00151 | 0.00183 | 0.0022 | 0.00262
in isopropanol | 0.000211 | 0.000278 | 0.000371 | 0.000491 | 0.000639 | 0.000825 | 0.00105 | 0.00135 | 0.00174 | 0.00224
in n-propanol | 0.000523 | 0.000671 | 0.000837 | 0.00103 | 0.0013 | 0.00161 | 0.002 | 0.00246 | 0.00297 | 0.00357
in water | 5.79e-07 | 7.99e-07 | 1.08e-06 | 1.46e-06 | 1.96e-06 | 2.61e-06 | 3.4e-06 | 4.49e-06 | 5.81e-06 | 7.48e-06
